Source: the supplement of paper PMC5908809

How the values were obtained:
[1] = system: normal NK cells expanded with K562-aAPC; experiment: percent inhibition of viability; higher = more inhibition; conditions: 72 h, IL-2 2.5 ng/mL
Description: (§1)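 Drug sensitivity and resistance testing on K562-aAPC-expanded normal NK cells: 5 concentrations (10-fold steps over a 10,000-fold range), 72 h at 37 °C, viability by CellTiter-Glo normalised to DMSO and benzethonium chloride controls; DSS from the fitted curve.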

[2] = system: normal NK cells expanded with K562-aAPC; experiment: drug sensitivity score (DSS) (DSS units); higher = more sensitive; extreme values may be limits of the assay; conditions: 72 h; IL-2 2.5 ng/mL
Description: as §1

NK-YS (IL-2 2.5 ng/mL) [3] = experiment: percent inhibition of viability; higher = more inhibition; conditions: 72 h
NKL (IL-2 2.5 ng/mL) [4] = experiment: as above; conditions: 72 h
[5] = system: normal primary NK cells, pool 3 (3 donors) (IL-2 2.5 ng/mL); experiment: as above; conditions: 72 h
[6] = system: normal primary NK cells, pool 2 (3 donors) (IL-2 2.5 ng/mL); experiment: as above; conditions: 72 h
IMC-1 (IL-2 20 ng/mL) [7] = experiment: as above; conditions: 72 h
YT (IL-2 2.5 ng/mL) [8] = experiment: as above; conditions: 72 h
SNK-6 (IL-2 2.5 ng/mL) [9] = experiment: as above; conditions: 72 h
KAI3 (IL-2 2.5 ng/mL) [10] = experiment: as above; conditions: 72 h
NK-92 (IL-2 2.5 ng/mL) [11] = experiment: as above; conditions: 72 h
[12] = system: normal primary NK cells, pool 1 (3 donors) (IL-2 2.5 ng/mL); experiment: as above; conditions: 72 h
DERL-7 (IL-2 2.5 ng/mL) [13] = experiment: as above; conditions: 72 h
[14] = system: normal primary NK cells, pool 1 (3 donors), resting (IL-2 0 ng/mL); experiment: as above; conditions: 72 h
KHYG-1 (IL-2 2.5 ng/mL) [15] = experiment: as above; conditions: 72 h
NK-YS (IL-2 2.5 ng/mL) [16] = experiment: drug sensitivity score (DSS) (DSS units); higher = more sensitive; extreme values may be limits of the assay; conditions: 72 h
NKL (IL-2 2.5 ng/mL) [17] = experiment: as above; conditions: 72 h
[18] = system: normal primary NK cells, pool 3 (3 donors) (IL-2 2.5 ng/mL); experiment: as above; conditions: 72 h
[19] = system: normal primary NK cells, pool 2 (3 donors) (IL-2 2.5 ng/mL); experiment: as above; conditions: 72 h
IMC-1 (IL-2 20 ng/mL) [20] = experiment: as above; conditions: 72 h
YT (IL-2 2.5 ng/mL) [21] = experiment: as above; conditions: 72 h
SNK-6 (IL-2 2.5 ng/mL) [22] = experiment: as above; conditions: 72 h
KAI3 (IL-2 2.5 ng/mL) [23] = experiment: as above; conditions: 72 h
NK-92 (IL-2 2.5 ng/mL) [24] = experiment: as above; conditions: 72 h
[25] = system: normal primary NK cells, pool 1 (3 donors) (IL-2 2.5 ng/mL); experiment: as above; conditions: 72 h
DERL-7 (IL-2 2.5 ng/mL) [26] = experiment: as above; conditions: 72 h
[27] = system: normal primary NK cells, pool 1 (3 donors), resting (IL-2 0 ng/mL); experiment: as above; conditions: 72 h
KHYG-1 (IL-2 2.5 ng/mL) [28] = experiment: as above; conditions: 72 h

C=C1C[C@@H]2[C@H](CC[C@]3(C)C(=O)CC[C@@H]23)[C@@]2(C)C=CC(=O)C=C12 [Exemestane] (max concentration tested 10000 nM)
percent inhibition of viability [%]
Conditions | 1 nM | 10 nM | 100 nM | 1000 nM | 10000 nM
DERL-7 (IL-2 2.5 ng/mL) [13] | -0.04 | 2.07 | -0.5 | 8.21 | 26.2
IMC-1 (IL-2 20 ng/mL) [7] | -4.22 | 2.93 | 0.3 | 7.31 | 12.9
KAI3 (IL-2 2.5 ng/mL) [10] | 0.1 | 9.66 | 6.63 | 5.02 | 42
KHYG-1 (IL-2 2.5 ng/mL) [15] | -6.37 | 13.7 | -2.18 | 12.3 | 29.8
NK-92 (IL-2 2.5 ng/mL) [11] | -2.32 | 9.27 | 5.72 | 8.66 | 44.8
NK-YS (IL-2 2.5 ng/mL) [3] | -2.57 | 3.99 | 3.16 | 2.81 | 18.9
NKL (IL-2 2.5 ng/mL) [4] | -3.13 | 9.66 | -3.12 | 3.19 | 14.4
SNK-6 (IL-2 2.5 ng/mL) [9] | -1.73 | 3.81 | 3.19 | 27.1 | 40.9
YT (IL-2 2.5 ng/mL) [8] | -3.57 | 11.7 | -3.54 | 1.89 | 7.92
[1] | -3.29 | -0.41 | 3.42 | 12.7 | 35.6
[5] | -5.22 | -9.04 | 7.22 | 1.19 | 30.5
[6] | -7.91 | -3.9 | 6.14 | 2.28 | 47.6
[12] | -3.16 | -4.6 | 2.49 | -8.32 | 47.6
[14] | 3.47 | -11.3 | -6.56 | -1.56 | 75.8

Conditions | drug sensitivity score
DERL-7 (IL-2 2.5 ng/mL) [26] | 2.16
IMC-1 (IL-2 20 ng/mL) [20] | 0.35
KAI3 (IL-2 2.5 ng/mL) [23] | 2.96
KHYG-1 (IL-2 2.5 ng/mL) [28] | 2.88
NK-92 (IL-2 2.5 ng/mL) [24] | 3.74
NK-YS (IL-2 2.5 ng/mL) [16] | 0.88
NKL (IL-2 2.5 ng/mL) [17] | 0.48
SNK-6 (IL-2 2.5 ng/mL) [22] | 5.29
YT (IL-2 2.5 ng/mL) [21] | 0
[2] | 3.07
[18] | 1.49
[19] | 2.8
[25] | 1.99
[27] | 4.06
